Experimental data taken from US20050215548A1 (Cyclacel Limited, priority 2002, published 2005).
Read-outs that look alike come from different tables or passages of the source.

What was measured:
HS27 = assay: 72-h MTT cytotoxicity assay, HS27; assay type: cell-based; conditions: Homo sapiens, HS27, Foreskin fibroblasts, read-out: Anti-proliferative activity, 72-h MTT IC50
Description: (§1) Representative bisarylsulfonamide compounds were tested on a panel of transformed and non-transformed human cell lines, using a standard 72-h MTT cytotoxicity assay [Haselsberger K et al, ibid].

NaCat = assay: 72-h MTT cytotoxicity assay, NaCat; assay type: cell-based; conditions: Keratinocyte, Human keratinocytes, read-out: Anti-proliferative activity, 72-h MTT IC50
Description: as §1

U2OS = assay: 72-h MTT cytotoxicity assay, U2OS; assay type: cell-based; conditions: Homo sapiens, Osteosracoma, read-out: Anti-proliferative activity, 72-h MTT IC50
Description: as §1

[1] = tested on: transformed human cell lines; assay: 72-h MTT panel, average transformed; assay type: cell-based; conditions: average over transformed cell lines, read-out: Anti-proliferative activity, 72-h MTT IC50, Average transformed
Description: as §1
(§2) This differential selectivity further supports the notion that the bisarylsulfonamides modulate cellular HDM2 function. It is known that HDM2 amplification is particularly common in soft tissue sarcomas and osteosarcomas [Momand J et al, ibid; Bartel F, Meye A, Wurl P, Kappler M, Bache M, Lautenschlager C, Grunbaum U, Schmidt H, Taubert H; Int. J. Cancer 2001; 95: 168-175].

H1299 = assay: 72-h MTT cytotoxicity assay, H1299; assay type: cell-based; conditions: Homo sapiens
How it was run: (§3)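 Anti-proliferative activity was measured by standard 72-h MTT assay. AGS is gastric adenocarcinoma with wild-type p53; H1299 is p53-null large cell lung carcinoma with low HDM2; SJSA-1 is bone sarcoma with wild-type p53 and overexpressed HDM2.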

p53 = p53 reporter gene assay (U2OS-derived luciferase reporter cell line); conditions: for Fold induction of luciferase activity: compared to basal luciferase activity, 16-h time point, at concentration of maximal induction; for Concentration (test compound concentration at which the p53 induction was maximal): p53 reporter, U2OS-derived cell line
Saos-2 = assay: 72-h MTT cytotoxicity assay, Saos-2; assay type: cell-based; conditions: Homo sapiens, Saos-2, Osteosracoma, read-out: Anti-proliferative activity, 72-h MTT IC50
Description: as §1

Lovo = assay: 72-h MTT cytotoxicity assay, Lovo; assay type: cell-based; conditions: Homo sapiens, Colon adenocarcinoma, read-out: Anti-proliferative activity, 72-h MTT IC50
Description: as §1

SJSA-1 = assay: 72-h MTT cytotoxicity assay, SJSA-1; assay type: cell-based; conditions: Homo sapiens
How it was run: as §3

carcinoma cell lines = assay: 72-h MTT panel, average carcinomas; assay type: cell-based; conditions: Homo sapiens, average over carcinoma cell lines, read-out: Anti-proliferative activity, 72-h MTT IC50, Average carcinomas
Description: as §1, §2

MCF7 = assay: 72-h MTT cytotoxicity assay, MCF7; assay type: cell-based; conditions: Homo sapiens, MCF7, Breast adenocarcinoma, read-out: Anti-proliferative activity, 72-h MTT IC50
Description: as §1

HDM2 = target: T1, HDM2 (Homo sapiens, UniProt Q00987); assay: Fluorescence polarisation competitive HDM2 binding assay
T1 construct: Recombinant HDM2 (1.5 μg per well) in TBS-BSA buffer
How it was run: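 Recombinant HDM2 (1.5 μg/well) was preincubated 5 min at room temperature with serially diluted compound in 50 mM Tris pH 7.4, 150 mM NaCl, 0.1% BSA, 5% DMSO final. Fluorescein-labelled p53 peptide (0.2 μM) was then added for 45 min. Polarisation was read at 485/520 nm and IC50 derived from dose-response curves.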

IMR90 = assay: 72-h MTT cytotoxicity assay, IMR90; assay type: cell-based; conditions: Homo sapiens, IMR-90, 72 h; IMR90, Lung fibroblasts; read-out: Anti-proliferative activity, 72-h MTT IC50
Description: as §1

A549 = assay: 72-h MTT cytotoxicity assay, A549; assay type: cell-based; conditions: Homo sapiens, A549, Lung carcinoma, read-out: Anti-proliferative activity, 72-h MTT IC50
Description: as §1

Messa = assay: 72-h MTT cytotoxicity assay, Messa; assay type: cell-based; conditions: Homo sapiens, MES-SA, Uterus sarcoma, read-out: Anti-proliferative activity, 72-h MTT IC50
Description: as §1

[2] = tested on: non-transformed human cell lines; assay: 72-h MTT panel, average non-transformed; assay type: cell-based; conditions: average over non-transformed cell lines, read-out: Anti-proliferative activity, 72-h MTT IC50, Average non-transformed
Description: as §1, §2

sarcoma cell lines = assay: 72-h MTT panel, average sarcomas; assay type: cell-based; conditions: Homo sapiens, average over sarcoma cell lines, read-out: Anti-proliferative activity, 72-h MTT IC50, Average sarcomas
Description: as §1, §2

Messa-Dx5 = assay: 72-h MTT cytotoxicity assay, Messa-Dx5; assay type: cell-based; conditions: Homo sapiens, MES-SA/Dx5, 72 h; Messa-Dx5, Uterus sarcoma; read-out: Anti-proliferative activity, 72-h MTT IC50
Description: as §1

SK-N-MC = assay: 72-h MTT cytotoxicity assay, SK-N-MC; assay type: cell-based; conditions: Homo sapiens, Neuriepithelioma, read-out: Anti-proliferative activity, 72-h MTT IC50
Description: as §1

HCT116 = assay: 72-h MTT cytotoxicity assay, HCT116; assay type: cell-based; conditions: Homo sapiens, HCT-116, 72 h; HCT116, Colon carcinoma; read-out: Anti-proliferative activity, 72-h MTT IC50
Description: as §1

WI38 = assay: 72-h MTT cytotoxicity assay, WI38; assay type: cell-based; conditions: Homo sapiens, WI-38, 72 h; WI38, Lung fibroblasts; read-out: Anti-proliferative activity, 72-h MTT IC50
Description: as §1

SKUT-1 = assay: 72-h MTT cytotoxicity assay, SKUT-1; assay type: cell-based; conditions: Homo sapiens, SK-UT-1, 72 h; SKUT-1, Uterus leiomyosarcoma; read-out: Anti-proliferative activity, 72-h MTT IC50
Description: as §1

HeLa = assay: 72-h MTT cytotoxicity assay, HeLa; assay type: cell-based; conditions: Homo sapiens, Cervical carcinoma, read-out: Anti-proliferative activity, 72-h MTT IC50
Description: as §1

AGS = assay: 72-h MTT cytotoxicity assay, AGS; assay type: cell-based; conditions: Homo sapiens
How it was run: as §3

HT29 = assay: 72-h MTT cytotoxicity assay, HT29; assay type: cell-based; conditions: Homo sapiens, HT-29, 72 h; HT29, Colon adenocarcinoma; read-out: Anti-proliferative activity, 72-h MTT IC50
Description: as §1

DU145 = assay: 72-h MTT cytotoxicity assay, DU145; assay type: cell-based; conditions: Homo sapiens, DU-145, 72 h; DU145, Prostate carcinoma; read-out: Anti-proliferative activity, 72-h MTT IC50
Description: as §1

Nci-H460 = assay: 72-h MTT cytotoxicity assay, Nci-H460; assay type: cell-based; conditions: Homo sapiens, Nci-H460, Large cell lung carcinoma, read-out: Anti-proliferative activity, 72-h MTT IC50
Description: as §1

[3] = tested on: AGS, H1299, MCF7 or SJSA1 cells; assay: Cell morphology (cell rounding); assay type: cell-based, human; conditions: five times IC50
Excerpt: Equal amounts of cell lysate were separated by SDS-PAGE and analysed by immunoblotting using the indicated antibodies. An estimation of the extent of cell rounding is indicated above each lane. The arrow indicates the position of a 85-kDa cleavage product of PARP, indicative of apoptosis. (B) The effect of compound 2 on the levels of the cell cycle proteins in AGS cells (wild-type 53). […] Equal amounts of cell lysate were separated by SDS-PAGE and analysed by immunoblotting using the indicated antibodies. An estimation of the extent of cell rounding is indicated above each lane. (C) The effect of negative control compound (refer Example 10), compound 2, cisplatin, and anisomycin on the levels of key proteins in MCF7 cells. […] Cisplatinum and anisomycin (a transcription inhibitor) treatments were with 50 μM or 37 μM, respectively. Cells were harvested at various time points; afterwards lysates were prepared and separated by SDS-PAGE and analysed by immunoblotting. The proteins detected are indicated. The extent of rounded or floating cells and the percentage viable cells were assessed. […] Equal amounts of cell lysate were separated by SDS-PAGE and analysed by immunoblotting using a range of antibodies. An estimation of the extent of cell rounding is indicated above each lane. […] SJSA1 cells were treated with 5 times [IC50] of compound 2 and collected at the indicated time points. Equal amounts of cell lysate were separated by SDS-PAGE and analysed by immunoblotting using a range of antibodies. An estimation of the extent of cell rounding is indicated above each lane.
Cells were treated with 5 times [IC50] of compound 2 and collected at various time points. The percentage of rounded cells was counted before cells were trypsinised and counted for cell viability using trypan blue.
Cells were lysed and equal amounts were analysed by SDS-polyacrylamide gel electrophoresis (SDS-PAGE) and immunoblotting. […] The reduction in E2F-1 levels correlated with reduction in E2F transcriptional activity as determined by an E2F-dependent luciferase reporter assay (refer Example 6).

[4] = tested on: E2F transcription factors; assay: E2F reporter gene assay (A549-derived luciferase reporter cell line); assay type: cell-based; conditions: Homo sapiens; after 3-h treatment with test compounds; read-out: IC50 E2F reporter, Non-synchronised cells
Description: A similar system to the p53 reporter assay described above was used, with the exception that it was designed to be responsive to E2F transcription factors rather than p53. An A549-derived cell line stably transfected with an E2F response element and a luciferase reporter gene was created. The genetic expression cassette construct used was from Clontech (Mercury™ Cell Cycle Profiling System). Assays were carried out as described above.
Representative bisarylsulfonamides were tested in the E2F gene reporter assay described in Example 6.

[5] = NCI-H1299, 72-h MTT, Table 1, read-out: IC50 Anti-proliferative effect on cell line H 1299
[6] = fluorescence polarisation assay, Table 3, read-out: In vitro competitive HDM2 binding assay IC50
[7] = fluorescence polarisation format, Table 1, read-out: IC50 In vitro competitive HDM2 binding assay
[8] = 72-h MTT, Table 1, read-out: IC50 Anti-proliferative effect on cell line AGS

T1 sequence (Q00987 whole entry): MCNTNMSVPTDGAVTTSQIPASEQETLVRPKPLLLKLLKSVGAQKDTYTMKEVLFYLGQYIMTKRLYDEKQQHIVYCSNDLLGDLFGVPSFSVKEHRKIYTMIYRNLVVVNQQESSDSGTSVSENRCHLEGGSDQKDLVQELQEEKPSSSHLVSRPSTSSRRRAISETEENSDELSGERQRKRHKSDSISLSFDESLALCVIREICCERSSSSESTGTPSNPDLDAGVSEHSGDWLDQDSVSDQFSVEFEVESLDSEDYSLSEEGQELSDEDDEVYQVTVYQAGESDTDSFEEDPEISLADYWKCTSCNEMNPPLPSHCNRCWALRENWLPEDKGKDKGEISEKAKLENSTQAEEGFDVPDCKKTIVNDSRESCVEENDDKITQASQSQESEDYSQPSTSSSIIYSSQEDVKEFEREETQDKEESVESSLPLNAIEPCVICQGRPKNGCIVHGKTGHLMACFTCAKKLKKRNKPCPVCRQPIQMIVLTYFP

SMILES: CN(c1ccc(F)cc1)S(=O)(=O)c1cc([N+](=O)[O-])c(Cl)s1 [Compound 7]
- IC50 (HS27): 39.2 µM
- IC50 (NaCat): 12.9 µM
- IC50 (U2OS): 8.8 µM
- IC50 [1]: 10.2 ± 4.4 µM
- IC50 (H1299; NCI-H1299, 72 h, H1299, Large cell lung carcinoma, Table 2, read-out: Anti-proliferative activity, 72-h MTT IC50): 14 µM
- IC50 (H1299; [5]): 12.9 ± 0.7 µM
- Fold induction of luciferase activity (p53): 32 fold
- Concentration (test compound concentration at which the p53 induction was maximal) (p53): 9 µM
- IC50 (Saos-2): 13.3 µM
- IC50 (Lovo): 8.5 µM
- IC50 (SJSA-1; 72 h, SJSA-1, Osteosracoma, Table 2, read-out: Anti-proliferative activity, 72-h MTT IC50): 17 µM
- IC50 (SJSA-1; SJSA-1, 72-h MTT, Table 1, read-out: IC50 Anti-proliferative effect on cell line SJSA-4): 9.3 ± 2.7 µM
- IC50 (carcinoma cell lines): 9.7 ± 4.7 µM
- IC50 (MCF7): 11.2 µM
- IC50 (HDM2; [6]): 15.4 ± 7.8 µM
- IC50 (HDM2; [7]): 15.4 ± 7.8 µM
- IC50 (IMR90): 41.8 µM
- IC50 (A549): 19.3 µM
- IC50 (Messa): 8.1 µM
- IC50 [2]: 44.6 ± 6.9 µM
- IC50 (sarcoma cell lines): 11.3 ± 3.7 µM
- IC50 (Messa-Dx5): 7.6 µM
- IC50 (SK-N-MC): 3 µM
- IC50 (HCT116): 12.2 µM
- IC50 (WI38): 52.3 µM
- IC50 (SKUT-1): 6.1 µM
- IC50 (HeLa): 13.7 µM
- IC50 (AGS; [8]): 7 ± 1.3 µM
- IC50 (AGS; 72 h, Gastric adenocarcinoma, Table 2, read-out: Anti-proliferative activity, 72-h MTT IC50): 5 µM
- IC50 (HT29): 4.6 µM
- IC50 (DU145): 9.1 µM
- IC50 (Nci-H460): 9.6 µM

SMILES: CC(Cc1c[nH]c2ccccc12)NS(=O)(=O)c1cc([N+](=O)[O-])c(Cl)s1 (centres unmarked) [Compound 49, 5-Chloro-4-nitrothiophene-2-sulfonic acid [2-(1H-indol-3-yl)-1-methylethyl]amide]
- cell rounding [3]: even more rapid cell rounding
- IC50 (H1299; [5]): 1.5 ± 0.4 µM
- Fold induction of luciferase activity (p53): 117 fold
- Concentration (test compound concentration at which the p53 induction was maximal) (p53): 5.5 µM
- IC50 (SJSA-1; SJSA-1, 72-h MTT, Table 1, read-out: IC50 Anti-proliferative effect on cell line SJSA-1): 2 ± 0.2 µM
- IC50 (HDM2; [6]): 46.3 ± 4 µM
- IC50 (HDM2; [7]): 46.3 ± 4 µM
- IC50 [4]: 36.3 ± 2.9 µM
- IC50 (AGS; [8]): 2.2 ± 2.3 µM
